Source: article PMC10850145, “Hormonal steroids induce multidrug resistance and stress response genes in Neisseria gonorrhoeae by binding to MtrR” (Nature Communications, 2024)
“And” between values parts separate entries of the source, which are not always exact repeats. Equal entries are not always repeated. Where two headings read alike, the source gives them in different places.

Legend:
MtrR R176E = biological target: T1, MtrR R176E (Neisseria gonorrhoeae, UniProt P39897, R176E); assay: biochemical; format: binding
T1 construct: Hexa-histidine tag with TEV protease cleavage site (N, cleaved yes); made in house; host or cells: E. coli Rosetta Gami B(DE3) pLysS
T1 sequence (P39897 whole entry R176E): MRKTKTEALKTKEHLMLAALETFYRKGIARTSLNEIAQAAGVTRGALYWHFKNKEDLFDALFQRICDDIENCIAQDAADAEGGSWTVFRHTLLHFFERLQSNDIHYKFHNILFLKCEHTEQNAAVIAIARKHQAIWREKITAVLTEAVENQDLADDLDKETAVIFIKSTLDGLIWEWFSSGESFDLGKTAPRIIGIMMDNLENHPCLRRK

MtrR D171A = biological target: T2, MtrR D171A (Neisseria gonorrhoeae, UniProt P39897, D171A); assay: biochemical; format: binding; conditions: ITC
T2 construct: Hexa-histidine tag with TEV protease cleavage site (N, cleaved yes); made in house; host or cells: E. coli Rosetta Gami B(DE3) pLysS
T2 sequence (P39897 whole entry D171A): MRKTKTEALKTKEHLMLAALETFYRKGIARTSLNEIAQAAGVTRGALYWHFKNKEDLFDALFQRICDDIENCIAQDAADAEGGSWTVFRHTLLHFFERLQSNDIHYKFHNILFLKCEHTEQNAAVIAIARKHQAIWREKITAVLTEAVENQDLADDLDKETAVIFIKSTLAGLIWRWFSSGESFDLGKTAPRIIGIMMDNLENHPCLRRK

[1] = biological target: T3, MtrR binding to rpoH operator (27mer) (Neisseria gonorrhoeae, UniProt P39897); assay: Fluorescence polarization based DNA binding assay, rpoH operator; conditions: rpoH 27mer + 125 µM steroid
T3 construct: Hexa-histidine tag with TEV protease cleavage site (N, cleaved yes); made in house; host or cells: E. coli Rosetta Gami B(DE3) pLysS
T3 sequence (P39897 whole entry): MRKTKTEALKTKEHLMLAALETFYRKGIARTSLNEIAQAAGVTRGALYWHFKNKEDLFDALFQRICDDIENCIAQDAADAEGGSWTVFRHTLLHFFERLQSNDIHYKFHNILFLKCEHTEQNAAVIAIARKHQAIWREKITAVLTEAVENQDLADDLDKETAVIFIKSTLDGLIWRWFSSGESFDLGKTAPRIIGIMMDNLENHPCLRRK
Procedure: Fluorescence polarization based-DNA binding data were collected using a Panvera Beacon 2000 fluorescence polarization system (Invitrogen) and analyzed with Prism (Graphpad Software 9, 10). Purified MtrR was buffer exchanged into “DNA” binding buffer (150 mM NaCl, 20 mM Tris-HCl pH 7.5, 2.5% glycerol, 1 mM TCEP). […] The reported oligoduplexes containing the rpoH and mtrCDE binding site differ in lengths, 27mer and 21mer, respectively[17],[21]. […] BSA and dI-dC are included as carriers and to control for nonspecific DNA binding. Samples were excited at 490 nm and polarized emissions measured at 530 nm. Controls were run with no protein (DNA ± methanol, hormonal steroids) to ensure that millipolarization values were not affected by experimental conditions alone. The binding affinity of protein for DNA was determined using the following equation: P = Pf + (Pb – Pf) [M] / (Kd + [M]) where P is the measured polarization, Pf is the polarization of free DNA, Pb is the polarization of the completely bound DNA, Kd is the equilibrium dissociation constant, and M is the concentration of protein. Pb and Kd were determined by nonlinear least-squares analysis. At least three independent experimental measurements were averaged for each reported binding constant.

gonococcal strain FA19 = assay: MIC of steroidal hormones on GC agar, strain FA19; format: cell-based; conditions: Neisseria gonorrhoeae
Procedure: (§1) To determine the minimal inhibitory concentrations (MICs) by the steroidal hormones and their effect on antimicrobial susceptibility, 5 x 10^5 CFU and 1:5 serial dilutions of gonococcal strains were spotted on GC agar plates containing different concentrations of antibiotics and/or hormones as indicated. Antimicrobial susceptibility was assessed after 24 h incubation.
Table S1. Steroidal hormones are substrates of the MtrCDE efflux pump
Progesterone Testosterone
*Minimal inhibition concentration is defined by the lowest concentration at which visible growth is […]

wild type FA19 = assay: Antimicrobial susceptibility spot assay with hormone plus azithromycin or polymyxin B, wild type FA19; format: cell-based, Neisseria gonorrhoeae
Procedure: (§2) Fig. 5 Effect of steroidal hormones on gonococcal antimicrobial susceptibility.
as §1

[2] = tested on: mutant strain JF1 (ΔmtrR); assay: Antimicrobial susceptibility spot assay with hormone plus antibiotic, JF1 (ΔmtrR); format: cell-based, Neisseria gonorrhoeae; conditions: derivative lacking MtrR (JF1), azithromycin
Procedure: as §2, §1

rpoH-lacZ expression = format: cell-based, Neisseria gonorrhoeae; conditions: for Miller units / β-galactosidase activity (Miller units): rpoH-lacZ, single replicate
[3] = ΔmtrR + mtrR D171A in trans, 6.25 µM hormone
[4] = ΔmtrR + mtrR D171A in trans, 12.5 µM hormone
[5] = ΔmtrR + mtrR D171A in trans, 25 µM hormone
[6] = ΔmtrR + mtrR D171A in trans, 50 µM hormone

Compound: C[C@]12CC[C@@H]3c4ccc(O)cc4CC[C@H]3[C@@H]1CC[C@@H]2O [β-Estradiol, β-estradiol]
- Kd (MtrR R176E): 720 ± 150 nM
- binding to MtrR D171A (MtrR D171A): no observable binding
- fluorescence polarization, MtrR titration ([1]; MtrR WT dimer 0.00 nM): 0.00 mP
- fluorescence polarization, MtrR titration ([1]; MtrR WT dimer 25.90 nM): 3.74 mP and 5.72 mP and 6.73 mP
- fluorescence polarization, MtrR titration ([1]; MtrR WT dimer 35.50 nM): 6.01 mP and 7.12 mP and 8.13 mP
- fluorescence polarization, MtrR titration ([1]; MtrR WT dimer 54.52 nM): 8.01 mP and 9.55 mP and 10.56 mP
- fluorescence polarization, MtrR titration ([1]; MtrR WT dimer 73.35 nM): 11.39 mP and 12.36 mP
- fluorescence polarization, MtrR titration ([1]; MtrR WT dimer 110.67 nM): 12.31 mP and 14.15 mP and 15.93 mP
- fluorescence polarization, MtrR titration ([1]; MtrR WT dimer 147.65 nM): 15.17 mP and 15.72 mP and 17.43 mP
- fluorescence polarization, MtrR titration ([1]; MtrR WT dimer 220.59 nM): 18.17 mP and 19.19 mP and 21.36 mP
- fluorescence polarization, MtrR titration ([1]; MtrR WT dimer 292.55 nM): 20.01 mP and 21.72 mP and 23.36 mP
- fluorescence polarization, MtrR titration ([1]; MtrR WT dimer 363.86 nM): 21.41 mP and 22.99 mP and 26.06 mP
- fluorescence polarization, MtrR titration ([1]; MtrR WT dimer 434.54 nM): 23.51 mP and 24.99 mP and 26.53 mP
- fluorescence polarization, MtrR titration ([1]; MtrR WT dimer 504.61 nM): 25.37 mP and 27.45 mP and 28.59 mP
- fluorescence polarization, MtrR titration ([1]; MtrR WT dimer 574.07 nM): 29.37 mP and 27.75 mP and 29.19 mP
- MIC (gonococcal strain FA19; FA19, 24 h): > 1180 µM
- MIC (gonococcal strain FA19; strain FA19, GC agar, read-out: MIC): > 320 µg/mL
- resistance to polymyxin B in presence of hormone (wild type FA19; strain FA19): increased resistance
- resistance to azithromycin in presence of sub-lethal hormone (wild type FA19; wild-type FA19, GC agar, 24 h, visual): elevated levels of resistance
- change in antibiotic resistance in presence of sub-lethal hormone [2]: did not show change
- Miller units, Mean (rpoH-lacZ expression; Mean of plate rows 5-8, plate columns 1-6 (first strain), 6.25 µM hormone): 42 Miller units
- Miller units, Mean (rpoH-lacZ expression; Mean of plate rows 5-8, plate columns 1-6 (first strain), 12.5 µM hormone): 61 Miller units
- Miller units, Mean (rpoH-lacZ expression; Mean of plate rows 5-8, plate columns 1-6 (first strain), 25 µM hormone): 70 Miller units
- Miller units, Mean (rpoH-lacZ expression; Mean of plate rows 5-8, plate columns 1-6 (first strain), 50 µM hormone): 78 Miller units
- Miller units, Mean (rpoH-lacZ expression; Mean of plate rows 5-8, plate columns 7-12 (second strain), 6.25 µM hormone): 73.6 Miller units
- Miller units, Mean (rpoH-lacZ expression; Mean of plate rows 5-8, plate columns 7-12 (second strain), 12.5 µM hormone): 75.3 Miller units
- Miller units, Mean (rpoH-lacZ expression; Mean of plate rows 5-8, plate columns 7-12 (second strain), 25 µM hormone): 76.5 Miller units
- Miller units, Mean (rpoH-lacZ expression; Mean of plate rows 5-8, plate columns 7-12 (second strain), 50 µM hormone): 79.6 Miller units
- induction of rpoH expression (rpoH-lacZ expression; complemented (MtrR+) strains, increasing hormone): could be induced
- induction of rpoH expression (rpoH-lacZ expression; loss of MtrR or MtrR-D171A strain): abrogated
- Miller units (rpoH-lacZ expression; [3]): 73 Miller units
- β-galactosidase activity (Miller units) (rpoH-lacZ expression; [3]): 64 Miller units and 67 Miller units and 90 Miller units
- Miller units (rpoH-lacZ expression; [4]): 67 Miller units
- β-galactosidase activity (Miller units) (rpoH-lacZ expression; [4]): 68 Miller units and 72 Miller units and 94 Miller units
- Miller units (rpoH-lacZ expression; [5]): 76 Miller units
- β-galactosidase activity (Miller units) (rpoH-lacZ expression; [5]): 84 Miller units and 81 Miller units and 65 Miller units
- Miller units (rpoH-lacZ expression; [6]): 82 Miller units
- β-galactosidase activity (Miller units) (rpoH-lacZ expression; [6]): 80 Miller units and 76 Miller units
- β-galactosidase activity (Miller units) (rpoH-lacZ expression; ΔmtrR + mtrR WT in trans, 6.25 µM hormone): 29 Miller units and 43 Miller units and 45 Miller units and 49 Miller units
- β-galactosidase activity (Miller units) (rpoH-lacZ expression; ΔmtrR + mtrR WT in trans, 12.5 µM hormone): 60 Miller units and 54 Miller units and 64 Miller units and 67 Miller units
- β-galactosidase activity (Miller units) (rpoH-lacZ expression; ΔmtrR + mtrR WT in trans, 25 µM hormone): 91 Miller units and 57 Miller units and 68 Miller units and 64 Miller units
- β-galactosidase activity (Miller units) (rpoH-lacZ expression; ΔmtrR + mtrR WT in trans, 50 µM hormone): 89 Miller units and 63 Miller units and 78 Miller units and 82 Miller units
- β-galactosidase activity (Miller units) (rpoH-lacZ expression; ΔmtrR strain, 6.25 µM hormone): 253 Miller units and 160 Miller units and 91 Miller units
